Type in all cases: functional
One assay relates to DU-145. Put plainly: Cytotoxicity against human DU145 cells assessed as growth inhibition at 10 uM after 48 hrs by SRB assay. As to conditions: DU-145, 48 h, read-out: GI. A general note: Sulforhodamine B stains cellular protein and so reports cell mass.
For another assay, the system named is CAKI-1. Put plainly: Cytotoxicity against human Caki1 cells assessed as growth inhibition at 10 uM after 48 hrs by SRB assay. Conditions: CAKI-1, 48 h, read-out: GI.
In another assay the test system is RXF 393. Put plainly: Cytotoxicity against human RXF393 cells assessed as growth inhibition at 10 uM after 48 hrs by SRB assay. Conditions: RXF 393, 48 h, read-out: GI.
Another assay relates to ACHN. Put plainly: Cytotoxicity against human ACHN cells assessed as growth inhibition at 10 uM after 48 hrs by SRB assay. As to conditions: read-out: GI.
For the next assay, the system named is IGROV-1. Put plainly: Cytotoxicity against human IGROV1 cells assessed as growth inhibition at 10 uM after 48 hrs by SRB assay. As to conditions: IGROV-1, 48 h, read-out: GI.
Another assay concerns SK-MEL-28. Put plainly: Cytotoxicity against human SK-MEL-28 cells assessed as growth inhibition at 10 uM after 48 hrs by SRB assay. As to conditions: SK-MEL-28, 48 h, read-out: GI.
The next assay relates to M14. Put plainly: Cytotoxicity against human M14 cells assessed as growth inhibition at 10 uM after 48 hrs by SRB assay. Conditions: M14, 48 h, read-out: GI.
The next assay concerns U-251. Put plainly: Cytotoxicity against human U251 cells assessed as growth inhibition at 10 uM after 48 hrs by SRB assay. As to conditions: U-251, 48 h, read-out: GI.
In a further assay the test system is SF-268. Put plainly: Cytotoxicity against human SF268 cells assessed as growth inhibition at 10 uM after 48 hrs by SRB assay. As to conditions: SF-268, 48 h, read-out: GI.
A further assay concerns HCT-15. Put plainly: Cytotoxicity against human HCT15 cells assessed as growth inhibition at 10 uM after 48 hrs by SRB assay. Conditions: HCT-15, 48 h, read-out: GI.
The subject of the next assay is NCI-H460. Put plainly: Cytotoxicity against human NCI-H460 cells assessed as growth inhibition at 10 uM after 48 hrs by SRB assay. As to conditions: NCI-H460, 48 h, read-out: GI.
Another assay concerns A549. Put plainly: Cytotoxicity against human A549 cells assessed as growth inhibition at 10 uM after 48 hrs by SRB assay. As to conditions: A549, 48 h, read-out: GI.
The next assay has as its system HL-60(TB). Put plainly: Cytotoxicity against human HL-60(TB) cells assessed as growth inhibition at 10 uM after 48 hrs by SRB assay. As to conditions: HL-60, 48 h, read-out: GI.
A short description of assay [1]: Cytotoxicity against human OVCAR5 cells assessed as growth inhibition at 10 uM after 48 hrs by SRB assay. As to conditions: OVCAR-5, 48 h, read-out: GI.
In another assay the test system is SNB-19. Put plainly: Cytotoxicity against human SNB19 cells assessed as growth inhibition at 10 uM after 48 hrs by SRB assay. Conditions: SNB-19, 48 h, read-out: GI.
The subject of a further assay is NCI-H226. Put plainly: Cytotoxicity against human NCI-H226 cells assessed as growth inhibition at 10 uM after 48 hrs by SRB assay. Conditions: NCI-H226, 48 h, read-out: GI.
Assay [2] is described as follows: Cytotoxicity against human EKVX cells assessed as growth inhibition at 10 uM after 48 hrs by SRB assay. As to conditions: read-out: GI.

SMILES strings stand for the structures.

Consider `C=CCn1c(C)nc2ccc(Nc3nc(Nc4ccc(F)cc4)nc4ccccc34)cc21`, for which the inhibition of growth at 10 µM in the assay on DU-145 is 30%; in the assay on CAKI-1 it was 40%; in the assay on RXF 393 it was 30%; in the assay on ACHN, 30%; in the assay on IGROV-1 it was 40%; with SK-MEL-28 it was 30%. For the same molecule, the inhibition of growth at 10 µM in the assay on M14 is 50%; in the assay with U-251 it was 40%; in the assay with SF-268 it was 30%; in the assay on HCT-15, 50%; in the assay with NCI-H460, 30%; in the assay with A549, 40%. Also, the inhibition of growth at 10 µM in the assay with HL-60(TB) was determined as 40%.
Turning to `C=CCn1c(C)nc2ccc(Nc3nc(Nc4ccc5nc(C)n(CC=C)c5c4)c4ccccc4n3)cc21`, the inhibition of growth at 10 µM in assay [1] was determined as 70%; with SNB-19, 50%; with NCI-H226 it was 30%; in [2] it was 90%.

The values are drawn from ChEMBL document CHEMBL3112450, “Synthesis and in vitro antitumor evaluation of primary amine substituted quinazoline linked benzimidazole” (Bioorg Med Chem Lett, 2014).
